Experimental data taken from ChEMBL document CHEMBL1124449, “Synthesis and evaluation of the pharmacological activity of rigid analogues of sympathomimetic catecholamines derived from bicyclo[2.2.1]heptane” (J Med Chem, 1989).
Calls of active or inactive are those of the source.

Tests used:
[1] = Stimulation or blockade of Alpha adrenergic receptor on rat vas deferens up to a dose of 10e-4 M; type: tissue-based
[2] = target: Beta-1 adrenergic receptor (Cavia porcellus) (UniProt B0FL73); experiment: Stimulation or blockade of Beta-1 adrenergic receptor on guinea pig atria up to a dose of 10e-4 M
Sequence of Beta-1 adrenergic receptor (Cavia porcellus) (B0FL73 1-467): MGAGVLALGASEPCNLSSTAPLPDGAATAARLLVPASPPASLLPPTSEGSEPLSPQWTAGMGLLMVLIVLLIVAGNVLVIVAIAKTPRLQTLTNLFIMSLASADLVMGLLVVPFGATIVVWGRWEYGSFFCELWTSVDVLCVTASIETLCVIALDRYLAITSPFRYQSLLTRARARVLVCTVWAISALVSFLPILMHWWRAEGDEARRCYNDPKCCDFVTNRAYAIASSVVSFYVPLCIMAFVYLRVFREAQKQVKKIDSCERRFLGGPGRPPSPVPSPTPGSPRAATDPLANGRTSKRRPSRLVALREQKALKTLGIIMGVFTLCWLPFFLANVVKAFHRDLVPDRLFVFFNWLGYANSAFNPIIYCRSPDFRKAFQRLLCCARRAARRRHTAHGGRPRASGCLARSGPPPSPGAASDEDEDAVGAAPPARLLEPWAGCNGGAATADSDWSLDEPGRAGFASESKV

[3] = target: Beta-2 adrenergic receptor (Canis lupus familiaris) (UniProt P54833); experiment: Stimulation or blockade of Beta-2 adrenergic receptor on guinea pig trachea up to a dose of 10e-4 M; details: Cavia porcellus; target entry is the homologue from another species
Sequence of Beta-2 adrenergic receptor (Canis lupus familiaris) (P54833 whole entry, looked up): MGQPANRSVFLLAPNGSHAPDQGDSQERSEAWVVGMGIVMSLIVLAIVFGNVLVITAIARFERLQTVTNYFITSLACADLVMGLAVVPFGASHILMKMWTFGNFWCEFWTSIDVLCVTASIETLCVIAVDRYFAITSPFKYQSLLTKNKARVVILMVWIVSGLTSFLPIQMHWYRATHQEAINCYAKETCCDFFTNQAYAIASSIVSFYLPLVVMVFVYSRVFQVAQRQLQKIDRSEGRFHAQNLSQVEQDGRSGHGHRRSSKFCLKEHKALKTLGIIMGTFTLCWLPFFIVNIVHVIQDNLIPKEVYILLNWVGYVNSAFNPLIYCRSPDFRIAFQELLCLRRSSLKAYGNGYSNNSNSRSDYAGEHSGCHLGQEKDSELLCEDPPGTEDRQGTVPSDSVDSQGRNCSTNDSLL

Measured: Activity

NC1C2CCC(C2)C1(O)c1ccc(O)c(O)c1 (stereo unspecified)
inactive: all assays above

CC(C)NC1C2CCC(C2)C1(O)c1ccc(O)c(O)c1 (stereo unspecified)
inactive: all assays above
